No end group written: not given here.
Experiments:
E. coli Y1088 = assay: Zone of inhibition on lawn of E. coli Y1088; type: cell-based
[1] = tested on: Acinetobacter caloaceticus (19606); assay: Minimal inhibitory concentration in trypticase soy broth; type: cell-based
Source text: (§1) Table III also lists the range of minimal inhibitory concentrations for various organisms assayed in trypticase soy broth. These determinations were made following standard techniques well known in the art and described in such publications as, DIFCO Manual, 10th edition, 1984, pages 78-80.

Candida albicans (14053) = assay: as above; type: cell-based
Source text: as §1

[2] = tested on: Citrobacter freundii (8090); assay: as above; type: cell-based
Source text: as §1

[3] = tested on: Enterobacter aerogenes (13048); assay: as above; type: cell-based
Source text: as §1

[4] = tested on: Enterobacter sonnei (23355); assay: as above; type: cell-based
Source text: as §1

Eschericia coli (25922) = assay: as above; type: cell-based
Source text: as §1

Eschericia coli D31 = assay: as above; type: cell-based
Source text: as §1

Proteus vulgaris (13315) = assay: as above; type: cell-based
Source text: as §1

[5] = tested on: Pseudomonas aeruginosa (27853); assay: as above; type: cell-based
Source text: as §1

[6] = tested on: Salmonella typhimurium (14028); assay: as above; type: cell-based
Source text: as §1

[7] = tested on: Serratia marcescens (8100); assay: as above; type: cell-based
Source text: as §1

Shigella sonnei (25931) = assay: as above; type: cell-based
Source text: as §1

[8] = tested on: Staphyloccus epidermidis (1228); assay: as above; type: cell-based
Source text: as §1

[9] = tested on: Staphylococcus aureus (25923); assay: as above; type: cell-based
Source text: as §1

[10] = tested on: Streptococcus faecalis (19433); assay: as above; type: cell-based
Source text: as §1

[11] = tested on: Streptococcus pyogenes (19615); assay: as above; type: cell-based
Source text: as §1

Amoeba proteus = assay: Antiprotozoan activity, physical lysis by light microscopy; type: cell-based; settings: approximate concentration, visual assessment by light microscopy
Source text: (§2) Table IV lists the approximate concentration of Magainins which induces physical lysis of several representative protozoan species. These determinations were made by visual assessment of the treated organisms by light microscopy. Of course, the optimal effective antimicrobial concentration of a particular Magainin can be easily determined in a routine manner without undue experimentation by techniques well known to one of ordinary skill in the art.

Euglena gracilis = assay: as above; type: cell-based; settings: approximate concentration, visual assessment by light microscopy
Source text: as §2

Paramecium caudatum = assay: as above; type: cell-based; settings: approximate concentration, visual assessment by light microscopy
Source text: as §2

Acanthomeba castellani = assay: Comparison of potencies, MIC (Table V); type: cell-based
Source text: (§3) It is pointed that the addition of a carboxyl-terminal amide to Magainin II results in about a 5-fold increase in potency of the peptide in several systems when compared to Magainin II. This simple modification illustrates one of several ways of modifying the polypeptides of the present invention.

E. coli D-31 = assay: Comparison of potencies, MIC (Table V); type: cell-based; settings: E. coli D-31 (Table V)
Source text: as §3

Pseudomonas aeruginosa = assay: Comparison of potencies, MIC (Table V); type: cell-based
Source text: as §3

Saccharomyces cerviscae = assay: Comparison of potencies, MIC (Table V); type: cell-based
Source text: as §3

Vero Cells = assay: Cytotoxicity by loss of Trypan Blue exclusion; type: cell-based, monkey; settings: 30 minutes after addition, MEM with 10% fetal calf serum
Source text: (§4) This activity is considered a significant attribute of the Magainin peptides in that it permits their use in the killing of animal cells. […] The most resistant appears to be the epithelial cell from the oral mucosa. The most sensitive is a transformed monkey kidney cell. […] This includes anti-tumor activity, in vivo cytolysis or growth inhibition of malignant cells, such as in leukemias and selective reduction in specific cell populations (e.g., removal of lymphocytes from blood).
(§5) Cells were suspended in standard minimal Eagles medium containing 10% fetal calf serum. VERO cells and KB cells were obtained from the American Type Culture Collection. Human diploid fibroblasts were propagated from a primary dermal biopsy. Human lymphocytes were collected from a buffy coat preparation by centrifugation in ficoll-hyapaque medium. Human buccal epithelium was obtained by scraping the oral mucosa with a glass cover-slip and resuspending the cellular scraping in MEM. Cytotoxicity was determined by loss of Trypan Blue exclusion, following addition of dye to the medium. Cytotoxicity was assessed 30 minutes after addition of the peptide. Concentration noted represents the concentration of peptide resulting in 50% toxicity as determined visually by light microscopic examination of the treated cells.

[12] = tested on: Human Buccal Epithelial Cells; assay: Cytotoxicity by loss of Trypan Blue exclusion; type: cell-based; settings: 30 minutes after addition
Source text: as §4, §5

[13] = tested on: Human Diploid Fibroblasts; assay: Cytotoxicity by loss of Trypan Blue exclusion; type: cell-based; settings: 30 minutes after addition
Source text: as §4, §5

Human KB Cells = assay: Cytotoxicity by loss of Trypan Blue exclusion; type: cell-based; settings: 30 minutes after addition
Source text: as §4, §5

[14] = tested on: Peripheral Human Lymphocytes; assay: Cytotoxicity by loss of Trypan Blue exclusion; type: cell-based; settings: 30 minutes after addition
Source text: as §4, §5

human sperm = assay: Spermicidal activity, sperm motility by light microscopy; type: cell-based; settings: human sperm in phosphate buffered saline, room temperature
Procedure: Magainin II(g) was added in various concentrations to a suspension of human sperm in phosphate buffered saline. Motility was assayed by visual inspection under a light microscope. Observations were conducted at room temperature (about 22°-25° C.). The approximate number of motile sperm observed in 20 independent fields was noted as a function of concentration. Magainin II(g) inhibits sperm motility by 50% at 35 μg/ml and by 100% at 75 μg/ml.

Plasmodium gallinaceum = assay: Activity against malarial parasite, direct light microscopy; type: cell-based; settings: 100 ug/ml in phosphate buffered saline, within seconds
Procedure: Observations of activity were conducted by direct light microscopy. A sample of female and male zygotic forms of the chicken malarial parasite were suspended in phosphate buffered saline. Magainin II(g) was added to each at 100 ug/ml.

HTLV III = assay: Anti-viral activity against HTLV III in SUPT1 tester cells; type: cell-based; settings: 200 μg/ml, virus preincubated 37° C. 30 min
Procedure: HTLV III was obtained from culture media from the producing cell line A.3101. The media was diluted with MEM containing 10% fetal calf serum (FCS) to a viral concentration of about 10^4 pfu/ml. Magainin II(g) was added to the viral innoculum (1 ml) to a concentration of 200 μg/ml and incubated at 37° C. for 30 min. The viral innoculum was then added to a well containing 10^3 tester cells (cell line, SUPT1) and 1 ml of MEM with 10% FCS. Viral activity was assessed by formation of syncytia and cell death in the test cell culture as compared with cell cultures unexposed to Magainin peptides.

[15] = tested on: Klebisiella pneumonia (13883); assay: Minimal inhibitory concentration in trypticase soy broth; type: cell-based
Source text: as §1

[16] = tested on: Shigella flexneri (12022); assay: as above; type: cell-based
Source text: as §1

Row | Substance | Zone of Inhibition on Lawn of E. coli Y1088 Generated by 50 μg of the Peptide (E. coli Y1088) [mm] | Minimal Inhibitory Concentration [1] [µg/mL] | Minimal Inhibitory Concentration (Candida albicans (14053)) [µg/mL] | Minimal Inhibitory Concentration [2] [µg/mL] | Minimal Inhibitory Concentration [3] [µg/mL] | Minimal Inhibitory Concentration (Eschericia coli (25922)) [µg/mL] | Minimal Inhibitory Concentration (Eschericia coli D31) [µg/mL] | Minimal Inhibitory Concentration (Proteus vulgaris (13315)) [µg/mL] | Minimal Inhibitory Concentration [5] [µg/mL] | Minimal Inhibitory Concentration [6] [µg/mL] | Minimal Inhibitory Concentration [7] [µg/mL] | Minimal Inhibitory Concentration [8] [µg/mL] | Minimal Inhibitory Concentration [9] [µg/mL] | Minimal Inhibitory Concentration [10] [µg/mL] | Minimal Inhibitory Concentration [11] [µg/mL] | Concentration required for osmotic lysis (Amoeba proteus) [µg/mL] | Concentration required for osmotic lysis (Euglena gracilis) [µg/mL] | Concentration required for osmotic lysis (Paramecium caudatum) [µg/mL] | further results
1 | FLHSAKKFGKAFVGEIMNS [Magainin II(d), (NH2)FLHSAKKFGKAFVGEIMNS(OH)] | 2 |  |  |  |  |  |  |  |  |  |  |  |  |  |  |  |  |  | 
2 | GIGKFLHSAKKFGKAFVGEIMNS [Magainin II] |  | 1 to 7 | 35 to 70 | 7 to 35 | 7 to 35 | 1 to 7 | 1 to 10 | > 100 | 35 to 70 | 35 to 70 | > 100 | 7 to 35 | 35 to 70 | 35 to 70 | 1 to 7 | 5 | 5 | 5 | Minimal Inhibitory Concentration [4]: 1 to 7 µg/mL; Minimal Inhibitory Concentration (Shigella sonnei (25931)): 1 to 7 µg/mL; MIC (Acanthomeba castellani): 15 µg/mL; MIC (E. coli D-31): 10 µg/mL; MIC (Pseudomonas aeruginosa): 70 µg/mL; MIC (Saccharomyces cerviscae): 50 µg/mL
3 | GKFLHSAKKFGKAFVGEIMNS [Magainin II(b)] | 10 |  |  |  |  |  |  |  |  |  |  |  |  |  |  |  |  |  | 
4 | GIGKFLHSAKKFGKAFVGEIMNS-NH2 [Magainin II(g)] | 15 |  |  |  |  |  |  |  |  |  |  |  |  |  |  |  |  |  | MIC (Acanthomeba castellani): 3 µg/mL; MIC (E. coli D-31): 2 µg/mL; MIC (Pseudomonas aeruginosa): 15 µg/mL; MIC (Saccharomyces cerviscae): 10 µg/mL; Concentration of peptide resulting in 50% toxicity (Vero Cells): 25 µg/mL; Concentration of peptide resulting in 50% toxicity [12]: 500 µg/mL; Concentration of peptide resulting in 50% toxicity [13]: 250 µg/mL; Concentration of peptide resulting in 50% toxicity (Human KB Cells): 125 µg/mL; Concentration of peptide resulting in 50% toxicity [14]: 75 µg/mL; Concentration that inhibits sperm motility by 50% (human sperm): 35 µg/mL; Concentration that inhibits sperm motility by 100% (human sperm): 75 µg/mL; Effect on female and male zygotic forms of Plasmodium gallinaceum (Plasmodium gallinaceum): both forms underwent evident physical lysis; Reverse transcriptase activity in culture fluids (HTLV III): no greater reverse transcriptase activity than uninfected cells; Viral activity by formation of syncytia and cell death in test cell culture (HTLV III; 2 weeks incubation): appeared identical to cultures not exposed to virus
5 | KFLHSAKKFGKAFVGEIMNS [Magainin II(c)] | 10 |  |  |  |  |  |  |  |  |  |  |  |  |  |  |  |  |  | 
6 | GIGKYLHSAKKFGKAFVGEIMNS-NH2 [Magainin II(h)] | 7 |  |  |  |  |  |  |  |  |  |  |  |  |  |  |  |  |  | 
7 | GIGKFLHSAKKFGKAFVGEIMN [Magainin III] |  | 7 to 35 | > 100 | 7 to 35 | > 100 | 7 to 35 | 1 to 10 | > 100 | 35 to 70 | 35 to 70 | > 100 | 35 to 70 | > 100 | > 100 | 7 to 35 | 5 | 5 | 5 | Minimal Inhibitory Concentration [15]: > 100 µg/mL
8 | LHSAKKFGKAFVGEIMNS [Magainin II(e), (NH2)LHSAKKFGKAFVGEIMNS(OH)] | 1 |  |  |  |  |  |  |  |  |  |  |  |  |  |  |  |  |  | 
9 | HSAKKFGKAFVGEIMNS [Magainin II(f), (NH2)HSAKKFGKAFVGEIMNS(OH)] | 0 |  |  |  |  |  |  |  |  |  |  |  |  |  |  |  |  |  | Effect on female and male zygotic forms of Plasmodium gallinaceum (Plasmodium gallinaceum): no visible effect
10 | GIGKFLHSAGKFGKAFVGEIMKS [Magainin I] |  | 7 to 35 | > 100 | > 100 | > 100 | 7 to 35 | 1 to 20 | > 100 | > 100 | > 100 | > 100 | > 100 | > 100 | > 100 | 7 to 35 | 5 | 5 | 5 | Minimal Inhibitory Concentration [15]: > 100 µg/mL; Minimal Inhibitory Concentration [16]: 35 to 70 µg/mL

From patent publication US5643876A, “Biologically active synthetic magainin peptides” (The United States of America as represented by the …, priority 1992, dated 1997)
